This is an account of results in publication PMC5789083, “Mechanisms driving the antibacterial and antibiofilm properties of Hp1404 and its analogue peptides against multidrug-resistant Pseudomonas aeruginosa” (Scientific Reports, 2018).

Where no end group is shown, it is not given here.

As a reminder, the fraction remaining is what is left of the initial amount, in per cent.

Series [1] concerns mouse red blood cells. The experiment in a line: Hemolytic activity. Particulars: 8% mouse RBCs in PBS, 37 °C, 1 h, A414, triplicate. In kind it is cell-based. How it is done: The hemolytic activities of the peptides were determined as previously described. Fresh mouse red blood cells (RBCs) were washed and diluted to 8% with PBS. RBC suspension was added to 96-well plates (100 µL/well), mixed with an equal volume of serially diluted peptides, and incubated at 37 °C for 1 h with gentle shaking. The plate was centrifuged and the supernatant was transferred to a 96-well plate. The absorbance at 414 nm was measured with a Versa-Max ELISA reader (Molecular Devices). PBS and 0.1% Triton X-100 were used as negative and positive controls, respectively. The experiment was performed in triplicate. The hemolysis rate was calculated using the following formula[55]: % Hemolysis = [(Abs 414 nm in the peptide solution-Abs 414 nm in PBS)/(Abs 414 nm in 0.1% Triton X-100-Abs 414 nm in PBS)] × 100

In series [2] the test system is trypsin. The experiment in a line: Trypsin stability assay. In kind it is in vitro ADME. Particulars: trypsin (25 nM) in sodium phosphate buffer, 20 µg peptide in 100 µL 10 mM sodium phosphate buffer pH 7.4 with 25 nM trypsin, 37 °C, RP-HPLC peak area of native peptide (C18), repeated three times, read-out: remaining peptide after trypsin treatment. As to the method: Each sample with trypsin was analysed by RT-HPLC on a Jupiter C18 column (4.6 × 250 mm, 300 Å, 5 µm; Phenomenex). Stability was expressed as the percentage of remaining peptide, which in turn was determined by comparing the HPLC peak areas, corresponding to the peak detected for the native peptide, before and after trypsin treatment. […]
(§1) released calcein was measured at an excitation wavelength of 480 nm and an emission […]
Trypsin stability assay. Peptides were treated with trypsin, and results were ev aluated usin g RP-HP LC, as described previously3. Briefly, 20 µ g of peptide was mixed with 100 µ L of 10 mM sodium phosphate buffer (pH 7.4) containing 25 nM trypsin (Sigma-Aldrich), and incubated at 37 °C for 1 h or 2 h. A fter incubation, 20 µL of each sampl e was anal ysed b y RT-HP LC on a J upiter C18 column (4.6 × 250 m m, 300 Å, 5 µm; Phenomenex).
PI uptake assay. Bacteri al membrane damage was assessed through monitoring the changes in fluorescence generated by the propidium iodide (P I) dye, as described previousl y4. Briefl y, P. aeruginosa ATCC 27853 was grown in NB to logarithmic phase of growth, and then diluted to OD600 = 0.25 in 10 mM sodium phosphate (pH 7.2) buffer with 10 % medium. […] PI fluorescence was monitored at an excitation wavelength of 580 nm and emission wavelength of 620 nm, using a micropl ate reader (Molecular Devices Co., Sunnyvale, CA, USA), during 30 min.

Series [3] relates to mammalian cells. Particulars: at concentrations below 50 µM; cited from earlier work. How it is done: In a previous study, Hp1404 was purified from the venomous gland of the scorpion Heterometrus petersii. […] Moreover, it is not toxic to mammalian cells at concentrations below 50 µM[20].
Series [4] concerns P. aeruginosa ATCC 27853. The experiment in a line: Time-killing assay. In kind it is cell-based, Pseudomonas aeruginosa. Particulars: at 2 hours; 2× MIC, P. aeruginosa ATCC 27853, 2 × 10^5 CFU/mL, colony counts in triplicate. An excerpt:
Peptide synthesis and purification. The peptides were s ynthesized using the solid- phase-9-fluorenylmethoxycarbonyl (Fmoc) method, as reported previously1, on a Rink amide 4-methylbenzhydrylamine resin, using a Liberty microwave peptide synthesizer (CEM, Matthews, NY, USA). The following chemicals were us ed as linkage reagents: 0.45 M 2- (1H - benzotriazole-1- yil)-1,1,3,3- tetramethyluronium hexafluorophosphate (HBTU) diluted in dimethylformamide (DMF), 0.1 M N -hydroxybenzotriazole (HOBt) diluted in piperidine/DMF, and 2 M N ,N -diisopropyleth ylamine (DIEA) diluted in N -methylp yrrolidone (NMP). After washing with dichloromethane (DCM), cleavage was performed by incubating for 2 h at 25 °C in a trifluoroacetic acid (TFA) solution containing water, phenol, and triisopropylsilane. The crude peptide was precipitated by dilution with ice-cold diethyl ether, then spread on the tube wall, and dried. After resuspension in 25 °C water, the peptide was purified by reversed phase high- performance liquid chromatograph y (RP-HP LC) on a Jupiter C18 column (4.6 × 250 mm, 300 Å, 5 µm; Phenomenex, Torrance, CA, USA). […]
(§2) Ti me -killing assay. […] After an 18- h incubation, the colonies were counted and aver age counts wer e determined.
(§3) Calcein leakage assay. […] The fluorescence generated from the […]

Series [5] can be described thus: Calcein leakage assay, PC:CH:SM LUVs. Particulars: PC:CH:SM (1:1:1, w/w) LUVs mimicking mammalian cell membranes (Fig. S4).
Text: Peptide synthesis and purification. The peptides were s ynthesized using the solid- phase-9-fluorenylmethoxycarbonyl (Fmoc) method, as reported previously1, on a Rink amide 4-methylbenzhydrylamine resin, using a Liberty microwave peptide synthesizer (CEM, Matthews, NY, USA). The following chemicals were us ed as linkage reagents: 0.45 M 2- (1H - benzotriazole-1- yil)-1,1,3,3- tetramethyluronium hexafluorophosphate (HBTU) diluted in dimethylformamide (DMF), 0.1 M N -hydroxybenzotriazole (HOBt) diluted in piperidine/DMF, and 2 M N ,N -diisopropyleth ylamine (DIEA) diluted in N -methylp yrrolidone (NMP). […]
as §2, §3, §1
PI uptake assay. Bacteri al membrane damage was assessed through monitoring the changes in fluorescence generated by the propidium iodide (P I) dye, as described previousl y4. […] PI fluorescence was monitored at an excitation wavelength of 580 nm and emission wavelength of 620 nm, using a micropl ate reader (Molecular Devices Co., Sunnyvale, CA, USA), during 30 min.

With GILGKLWEGVKSIF-NH2 [Hp1404], the hemolysis rate in series [1] (12.5 µM) was 2%; in series [1] (25 µM) it was 11%; in series [1] (50 µM), 55%; in series [1] (100 µM), 92%; in series [1] (200 µM), 100%. Further, the amount remaining at 2 h, 0.2 mg/mL in series [2] is 50%. In series [3], the “toxicity to mammalian cells” value was “not toxic”.
In series [4], ILKKLLKKVKKI-NH2 [Hp1404-T1e] came in with a bacteria killed of 85%. Also, the “toxicity by calcein leakage assay” value in series [5] is reported as “not toxic”.
